How the values were obtained:
[1] = molecular target: T1, S1P1 (Homo sapiens, UniProt P21453); assay: cAMP assay; format: cell-based; details: read-out: ECK, cAMP
[2] = molecular target: T1, S1P1; assay: β-arrestin assay S1P1; format: cell-based
[3] = molecular target: S1P2 (Homo sapiens, UniProt O95136); assay: β-arrestin assay S1P2; format: cell-based
[4] = molecular target: S1P3 (Homo sapiens, UniProt Q99500); assay: β-arrestin assay S1P3; format: cell-based
[5] = molecular target: T2, S1P4 (Homo sapiens, UniProt O95977); assay: β-arrestin assay S1P4; format: cell-based
T2 sequence (O95977 1-384): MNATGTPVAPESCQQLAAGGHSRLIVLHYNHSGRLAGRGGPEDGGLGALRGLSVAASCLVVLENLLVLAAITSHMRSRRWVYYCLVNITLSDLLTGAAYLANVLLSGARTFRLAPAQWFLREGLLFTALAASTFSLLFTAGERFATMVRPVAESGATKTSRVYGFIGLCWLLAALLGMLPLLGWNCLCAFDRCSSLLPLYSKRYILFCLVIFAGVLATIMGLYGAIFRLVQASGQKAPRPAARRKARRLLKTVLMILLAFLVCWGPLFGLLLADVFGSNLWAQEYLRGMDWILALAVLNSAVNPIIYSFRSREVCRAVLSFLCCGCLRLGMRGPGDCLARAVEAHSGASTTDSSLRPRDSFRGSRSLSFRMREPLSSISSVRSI

[6] = molecular target: S1P5 (Homo sapiens, UniProt Q9H228); assay: β-arrestin assay S1P5; format: cell-based
[7] = tested on: bleomycin-induced skin fibrosis; assay: bleomycin-induced rodent model of skin fibrosis; format: in vivo, male C57BL/6 mice; details: mice, PO QD
Experimental: Compound 1 was evaluated in a bleomycin-induced rodent model of skin fibrosis. Skin fibrosis was induced in male C57BL/6 mice (6-7 weeks old; 20-25 g) with bleomycin injections at a concentration of 0.5 mg/ml via subcutaneous (SC) route. The mice received 100 μl of bleomycin at 0.5 mg/ml dissolved in PBS every other day for 21 days. The following treatments were randomly assigned: 1.) sham+vehicle (10% HBPCD/saline) per oral (PO) once daily (QD); 2.) bleomycin+vehicle (10% HBPCD/saline) PO QD; 3.) bleomycin+1 mg/kg Compound 1 PO QD; 4.) bleomycin+3 mg/kg Compound 1 PO QD; 5.) bleomycin+1 mg/kg FTY720 PO 3×/week; 6.) bleomycin+90 mg/kg FTY720 intraperitoneal (IP) QD (FIG. 1). Skin tissue was harvested post-mortem, with half of the biopsy specimen fixed in 4% wt/vol. paraformaldehyde for histology and the other half snap frozen for collagen analysis (hydroxyproline assay). Histological sections (4 μm) were cut from paraffin-embedded PFA-fixed lesional skin tissue. Sections were stained with haematoxylin and eosin (H&E) and Masson's Trichrome. Images were captured at ×100 microscopic magnification for histological dermal thickness determination. Collagen deposition (FIG. 2A), dermal thickness (FIG. 2B), tissue sections (FIG. 2C), dermal fibrosis (FIG. 3A), inflammation (FIG. 3B), and average epidermal thickness (FIG. 3C) were evaluated.

[8] = tested on: lymphocytes; assay: single ascending dose and multiple ascending dose studies in healthy subjects; format: in vivo

T1 sequence (P21453 whole entry): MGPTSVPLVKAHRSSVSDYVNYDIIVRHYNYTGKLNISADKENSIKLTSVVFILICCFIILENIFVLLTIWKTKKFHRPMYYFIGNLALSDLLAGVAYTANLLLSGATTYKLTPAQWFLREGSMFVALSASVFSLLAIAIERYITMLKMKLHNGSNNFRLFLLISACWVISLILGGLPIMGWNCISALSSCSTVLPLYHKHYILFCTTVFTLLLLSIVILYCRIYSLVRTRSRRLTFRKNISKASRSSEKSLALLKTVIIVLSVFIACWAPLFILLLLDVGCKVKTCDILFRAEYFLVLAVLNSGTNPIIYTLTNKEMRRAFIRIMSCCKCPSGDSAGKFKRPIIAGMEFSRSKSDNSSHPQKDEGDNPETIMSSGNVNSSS
Sequence of S1P5 (Q9H228 whole entry): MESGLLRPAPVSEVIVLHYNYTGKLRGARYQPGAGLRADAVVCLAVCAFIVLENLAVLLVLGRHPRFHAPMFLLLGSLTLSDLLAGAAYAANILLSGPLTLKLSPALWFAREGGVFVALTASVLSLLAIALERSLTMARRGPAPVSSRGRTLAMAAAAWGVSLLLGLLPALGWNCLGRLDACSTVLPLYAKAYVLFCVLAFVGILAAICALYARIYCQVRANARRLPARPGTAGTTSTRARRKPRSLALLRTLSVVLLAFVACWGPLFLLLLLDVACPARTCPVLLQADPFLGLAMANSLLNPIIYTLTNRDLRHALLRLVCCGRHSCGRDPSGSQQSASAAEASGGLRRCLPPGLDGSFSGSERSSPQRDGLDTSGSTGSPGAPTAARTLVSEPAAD
Sequence of S1P3 (Q99500 whole entry): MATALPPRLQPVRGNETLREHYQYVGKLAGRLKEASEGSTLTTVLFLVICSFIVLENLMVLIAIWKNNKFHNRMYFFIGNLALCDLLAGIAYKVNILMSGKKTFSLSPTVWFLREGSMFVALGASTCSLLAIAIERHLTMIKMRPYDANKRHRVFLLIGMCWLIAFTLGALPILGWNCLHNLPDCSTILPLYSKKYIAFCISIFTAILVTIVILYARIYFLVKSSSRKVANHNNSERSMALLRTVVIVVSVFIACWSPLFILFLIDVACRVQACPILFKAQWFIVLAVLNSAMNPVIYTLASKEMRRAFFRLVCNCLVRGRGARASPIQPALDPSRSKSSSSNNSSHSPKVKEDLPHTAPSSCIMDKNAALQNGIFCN
Sequence of S1P2 (O95136 whole entry): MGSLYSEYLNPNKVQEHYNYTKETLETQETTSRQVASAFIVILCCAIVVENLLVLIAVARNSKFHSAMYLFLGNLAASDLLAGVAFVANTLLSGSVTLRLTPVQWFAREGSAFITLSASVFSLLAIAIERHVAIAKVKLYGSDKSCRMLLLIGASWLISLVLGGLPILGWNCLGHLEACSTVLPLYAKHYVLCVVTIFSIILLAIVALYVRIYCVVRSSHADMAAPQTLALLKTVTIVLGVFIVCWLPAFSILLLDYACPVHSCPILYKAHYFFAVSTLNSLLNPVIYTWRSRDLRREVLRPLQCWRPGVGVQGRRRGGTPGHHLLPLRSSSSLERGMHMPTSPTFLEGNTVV

Work on `O=C(O)C[C@H]1CCc2c1[nH]c1ccc(OCc3ccc(C4CCCC4)c(C(F)(F)F)c3)cc21` [Compound 1, (R)-2-(7-(4-cyclopentyl-3-(trifluoromethyl)benzyloxy)-1,2,3,4-tetrahydrocyclopenta[b]indol-3-yl)acetic acid] yielded an EC50 [1] of 0.093 nM, an EC50 [2] of 6.1 nM and an EC50 [3] of over 10000 nM. The EC50 [4] was over 10000 nM, the EC50 [5] was 147 nM and the EC50 [6] was 24.4 nM. The dermal thickening ([7]; histology, FIG. 2B) was “significantly reduced”, the collagen deposition ([7]; hydroxyproline assay, FIG. 2A) was “significantly reduced” and the lymphocyte lowering [8] was “demonstrated the lymphocyte lowering capabilities”.
